Results from the supplement of paper PMC10307832.

Assays:
Experiment in all cases: relative viability (nuclei count vs DMSO), 5 days (fraction); higher = more cells survive
TPCA-1 + Decitabine = compound: C1=CC(=CC=C1C2=CC(=C(S2)NC(=O)N)C(=O)N)F [TPCA-1] + Nc1ncn([C@H]2C[C@H](O)[C@@H](CO)O2)c(=O)n1 [Decitabine] (partner 2 µM)
Method in brief: (§1)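 Medians of duplicate plates are given as relative viability. That measure is the nuclei count in treated wells divided by the count in vehicle wells. Counts were taken on 4× images of lung cancer cell lines in 1536-well plates, 5 days after pin-tool dosing the day after seeding with one drug alone or a fixed anchor-drug dose plus five library-drug doses (not always all listed) in √10 steps.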

TPCA-1 + Luminespib = compound: C1=CC(=CC=C1C2=CC(=C(S2)NC(=O)N)C(=O)N)F [TPCA-1] + CCNC(=O)c1noc(-c2cc(C(C)C)c(O)cc2O)c1-c1ccc(CN2CCOCC2)cc1 [Luminespib] (partner 0.01 µM)
Method in brief: as §1

[1] = compound: C[C@]12O[C@H](C[C@]1(O)CO)n1c3ccccc3c3c4c(c5c6ccccc6n2c5c31)CNC4=O [Lestaurtinib] + O=C(CCCCCCC(=O)Nc1ccccc1)NO [Vorinostat] (partner 1 µM)
Method in brief: as §1

[2] = compound: C[C@]12O[C@H](C[C@]1(O)CO)n1c3ccccc3c3c4c(c5c6ccccc6n2c5c31)CNC4=O [Lestaurtinib] + CS(=O)(=O)N1CCN(Cc2cc3nc(-c4cccc5[nH]ncc45)nc(N4CCOCC4)c3s2)CC1 [Pictilisib] (partner 1 µM)
Method in brief: as §1

UMC-11 gave a relative viability (TPCA-1 + Decitabine; first compound 0.04 µM) of 0.584, a relative viability (TPCA-1 + Decitabine; first compound 0.1265 µM) of 0.501 and a relative viability (TPCA-1 + Decitabine; first compound 0.4 µM) of 0.792. The relative viability (TPCA-1 + Decitabine; first compound 1.265 µM) was 0.613, the relative viability (TPCA-1 + Decitabine; first compound 4 µM) was 0.439 and the relative viability (TPCA-1 + Luminespib; first compound 0.04 µM) was 1.18. For the same cell line, the relative viability (TPCA-1 + Luminespib; first compound 0.1265 µM) was 0.914, the relative viability (TPCA-1 + Luminespib; first compound 0.4 µM) was 1.09 and the relative viability (TPCA-1 + Luminespib; first compound 1.265 µM) was 0.957. It also gave a relative viability (TPCA-1 + Luminespib; first compound 4 µM) of 0.684, a relative viability ([1]; first compound 0.005 µM) of 0.367 and a relative viability ([1]; first compound 0.01581 µM) of 0.36. For the same cell line, the relative viability ([1]; first compound 0.05 µM) was 0.323, the relative viability ([1]; first compound 0.1581 µM) was 0.182 and the relative viability ([1]; first compound 0.5 µM) was 0.118. It also gave a relative viability ([2]; first compound 0.005 µM) of 0.83, a relative viability ([2]; first compound 0.01581 µM) of 0.767 and a relative viability ([2]; first compound 0.05 µM) of 0.415. For the same cell line, the relative viability ([2]; first compound 0.1581 µM) was 0.366 and the relative viability ([2]; first compound 0.5 µM) was 0.145.
